According to ChEMBL document CHEMBL1201862, “PubChem BioAssay data set” (2004):
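Grown in 96-well plates, cells were treated for 48 hours with each compound at five concentrations. Insufficient inhibition: endpoint recorded as highest concentration tested. Abbreviation: GI50, concentration required for 50% inhibition of growth.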 The source made the active and inactive calls. No stated cut-off is given here; in the data, active = GI50 up to about 1.1 µM and inactive = higher.

Key:
Test in all cases: NCI-60 cell line screen, 48 h
[1] = tested on: ACHN
[2] = tested on: CCRF-CEM
[3] = tested on: COLO 205
[4] = tested on: EKVX
[5] = tested on: HCC 2998
[6] = tested on: HCT-116
[7] = tested on: IGROV-1
[8] = tested on: M14
[9] = tested on: MCF7
[10] = tested on: MDA-MB-435
[11] = tested on: MDA-N
[12] = tested on: MOLT-4
[13] = tested on: NCI-H23
[14] = tested on: NCI-H460
[15] = tested on: RPMI-8226
[16] = tested on: SF-295
[17] = tested on: SW-620
[18] = tested on: U-251
[19] = tested on: UACC-62

Measured: GI50

CCC(=O)N/S(=N/S(=O)(=O)c1ccccc1)C(Cl)(Cl)Cl (stereo not drawn)
inactive: [1] > 100 µM | [2] > 100 µM | [3] > 100 µM | [4] > 100 µM | [5] > 100 µM | [6] > 100 µM | [7] > 100 µM | [8] > 100 µM | [9] > 100 µM | [10] > 100 µM | [11] > 100 µM | [12] > 100 µM | [13] > 100 µM | [14] > 100 µM | [15] > 100 µM | [16] > 100 µM | [17] > 100 µM | [18] > 100 µM | [19] > 100 µM

COc1ccc(C(=O)/C=C/c2ccc(OCCCOc3ccc(/C=C/C(=O)c4ccc(OC)c(OC)c4)cc3)cc2)cc1OC
inactive: [1] > 100 µM | [2] > 100 µM | [3] > 100 µM | [4] > 100 µM | [5] > 100 µM | [6] > 100 µM | [7] > 100 µM | [8] > 100 µM | [9] > 100 µM | [10] > 100 µM | [11] > 100 µM | [12] > 100 µM | [14] > 100 µM | [15] > 100 µM | [16] > 100 µM | [17] > 100 µM | [18] > 100 µM | [19] > 100 µM

COc1ccc(-c2c3c(n(C4OC(CO)C(O)C(O)C4O)c(=S)c2C#N)CCC3)cc1 (stereo not drawn)
inactive: [1] 38.5 µM | [2] 32.6 µM | [3] 68.9 µM | [5] 66.2 µM | [6] 49.2 µM | [7] 48.6 µM | [8] 36.2 µM | [9] 37.6 µM | [10] 33.3 µM | [11] 53.8 µM | [12] 28.8 µM | [13] 28.7 µM | [14] 45.2 µM | [15] 49.5 µM | [16] 31.9 µM | [17] 71.9 µM | [18] 37.1 µM | [19] 42 µM

Cc1cc(O)cc(O)c1C(=O)O[C@]1(C)C(=O)C=C2C=C(/C=C/C(=O)O)OC=C2C1=O
inactive: [1] > 100 µM | [2] 38.5 µM | [3] > 100 µM | [4] > 100 µM | [5] > 100 µM | [6] 76.9 µM | [7] > 100 µM | [8] > 100 µM | [9] 47.8 µM | [10] > 100 µM | [11] > 100 µM | [12] 60.8 µM | [13] > 100 µM | [14] > 100 µM | [15] > 100 µM | [16] > 100 µM | [17] 58.3 µM | [19] > 100 µM
